We go through 20 molecules from US10100058B2, “Fused heterocyclic compounds as CaM kinase inhibitors” (Gilead Sciences, Inc., priority 2016, dated 2018).

Each structure is given as a SMILES string.

One experiment deals with recombinant CaMKIIδ (Homo sapiens (Human), UniProt Q13557). The experiment is described as follows: CaMKIIδ biochemical assay (HTRF). Particulars: 10 pM CaMKIIδ, 110 nM calmodulin, 12 μM ATP, 1 hour; read-out: CAMKIID-HTRF-384V2 (IC50 - nM). The method, then:
CaMKIIδ Biochemical Assay
The biochemical activity of recombinant CaMKIIδ was measured by monitoring the phosphorylation of a target peptide using Homogenous Time Resolved Fluorescence (HTRF) technology from CisBio Bioassays.
(TR-FRET usually uses a lanthanide donor and a delayed reading to cut background.)
On to `COC1CN(c2cc(C(=O)NC[C@@H]3CCCN3C)cc(-c3cnn4ccc(-c5cccs5)nc34)n2)C1` [Example 257, (S)-2-(3-methoxyazetidin-1-yl)-N-((1-methylpyrrolidin-2-yl)methyl)-6-(5-(thiophen-2-yl)pyrazolo[1,5-a]pyrimidin-3-yl)isonicotinamide], for which the IC50 came out at 284 nM.
Take `CCN(CC)CCNC(=O)c1cc(-c2cnn3ccc(-c4cccs4)nc23)nc(N2CC(C)(O)C2)c1` [Example 258, N-(2-(diethylamino)ethyl)-2-(3-hydroxy-3-methylazetidin-1-yl)-6-(5-(thiophen-2-yl)pyrazolo[1,5-a]pyrimidin-3-yl)isonicotinamide]: the IC50 is 1.07 nM.
Same read-out and setting: the figure for `CCN(CC)CCNC(=O)c1cc(NCCO)nc(-c2cnn3ccc(-c4cccs4)nc23)c1` [Example 259, N-(2-(diethylamino)ethyl)-2-((2-hydroxyethyl)amino)-6-(5-(thiophen-2-yl)pyrazolo[1,5-a]pyrimidin-3-yl)isonicotinamide] is 1.02 nM; for `CCN(CC)c1cc(C(=O)NC[C@H](C)N(CC)CC)cc(-c2cnn3ccc(-c4cccs4)nc23)n1` [Example 260, (S)-2-(diethylamino)-N-(2-(diethylamino)propyl)-6-(5-(thiophen-2-yl)pyrazolo[1,5-a]pyrimidin-3-yl)isonicotinamide] it is 1.71 nM.
Same read-out and setting: for `CCNc1cc(C(=O)NC[C@H](C)N(CC)CC)cc(-c2cnn3ccc(-c4cccs4)nc23)n1` [Example 261, (S)—N-(2-(diethylamino)propyl)-2-(ethylamino)-6-(5-(thiophen-2-yl)pyrazolo[1,5-a]pyrimidin-3-yl)isonicotinamide] the value was 0.54 nM; for `CCN(CC)[C@@H](C)CNC(=O)c1cc(-c2cnn3ccc(-c4ccncc4)nc23)nc(N2CC(OC)C2)c1` [Example 262, (S)—N-(2-(diethylamino)propyl)-2-(3-methoxyazetidin-1-yl)-6-(5-(pyridin-4-yl)pyrazolo[1,5-a]pyrimidin-3-yl)isonicotinamide], 6.97 nM; for `CCN(CC)[C@@H](C)CNC(=O)c1cc(-c2cnn3ccc(-c4cccs4)nc23)nc(N2CCC(C(N)=O)CC2)c1` [Example 263, (S)-2-(4-carbamoylpiperidin-1-yl)-N-(2-(diethylamino)propyl)-6-(5-(thiophen-2-yl)pyrazolo[1,5-a]pyrimidin-3-yl)isonicotinamide], 0.51 nM.
Still for that read-out and setting: the figure for `CCN(CC)[C@@H](C)CNC(=O)c1cc(-c2cnn3ccc(-c4cccs4)nc23)nc(N2CCO[C@H](CO)C2)c1` [Example 264, N—((S)-2-(diethylamino)propyl)-2-((S)-2-(hydroxymethyl)morpholino)-6-(5-(thiophen-2-yl)pyrazolo[1,5-a]pyrimidin-3-yl)isonicotinamide] is 0.2 nM; for `CCN(CC)[C@@H](C)CNC(=O)c1cc(-c2cnn3ccc(-c4cccs4)nc23)nc(N2CC[C@H]2COC)c1` [Example 265, N—((S)-2-(diethylamino)propyl)-2-((S)-2-(methoxymethyl)azetidin-1-yl)-6-(5-(thiophen-2-yl)pyrazolo[1,5-a]pyrimidin-3-yl)isonicotinamide] it is 0.42 nM.
Consider `CCN(CC)[C@@H](C)CNC(=O)c1cc(-c2cnn3ccc(-c4cccs4)nc23)nc(N2CC[C@@H]2COC)c1` [Example 266, N—((S)-2-(diethylamino)propyl)-2-((R)-2-(methoxymethyl)azetidin-1-yl)-6-(5-(thiophen-2-yl)pyrazolo[1,5-a]pyrimidin-3-yl)isonicotinamide], for which the IC50 amounted to 0.46 nM.
On to `CCN(CC)[C@@H](C)CNC(=O)c1cc(-c2cnn3ccc(-c4cccs4)nc23)nc(N2CC[C@@H]2CO)c1` [Example 267, N—((S)-2-(diethylamino)propyl)-2-((R)-2-(hydroxymethyl)azetidin-1-yl)-6-(5-(thiophen-2-yl)pyrazolo[1,5-a]pyrimidin-3-yl)isonicotinamide], for which the IC50 was determined as 0.28 nM.
Turning to `CCN(CC)[C@@H](C)CNC(=O)c1cc(-c2cnn3ccc(-c4cccs4)nc23)nc(N2CC[C@H]2CO)c1` [Example 268, N—((S)-2-(diethylamino)propyl)-2-((S)-2-(hydroxymethyl)azetidin-1-yl)-6-(5-(thiophen-2-yl)pyrazolo[1,5-a]pyrimidin-3-yl)isonicotinamide], the IC50 was 0.06 nM.
`CCN(CC)[C@@H](C)CNC(=O)c1cc(-c2cnn3ccc(-c4cccs4)nc23)nc(N2CCC[C@@H]2C(N)=O)c1` [Example 269, 2-((R)-2-carbamoylpyrrolidin-1-yl)-N—((S)-2-(diethylamino)propyl)-6-(5-(thiophen-2-yl)pyrazolo[1,5-a]pyrimidin-3-yl)isonicotinamide]: the IC50 stood at 6.05 nM.
The same measure, in the same setting: for `CCN(CC)[C@@H](C)CNC(=O)c1cc(-c2cnn3ccc(-c4cccs4)nc23)nc(N2CCC[C@H]2C(N)=O)c1` [Example 270, 2-((S)-2-carbamoylpyrrolidin-1-yl)-N—((S)-2-(diethylamino)propyl)-6-(5-(thiophen-2-yl)pyrazolo[1,5-a]pyrimidin-3-yl)isonicotinamide] the value was 1.91 nM; for `CCN(CC)[C@@H](C)CNC(=O)c1cc(-c2cnn3ccc(-c4cccs4)nc23)nc(N2CCC[C@H]2CO)c1` [Example 271, N—((S)-2-(diethylamino)propyl)-2-((S)-2-(hydroxymethyl)pyrrolidin-1-yl)-6-(5-(thiophen-2-yl)pyrazolo[1,5-a]pyrimidin-3-yl)isonicotinamide], 0.31 nM.
With `CCN(CC)[C@@H](C)CNC(=O)c1cc(-c2cnn3ccc(-c4cccs4)nc23)nc(N2CCC[C@@H]2CO)c1` [Example 272, N—((S)-2-(diethylamino)propyl)-2-((R)-2-(hydroxymethyl)pyrrolidin-1-yl)-6-(5-(thiophen-2-yl)pyrazolo[1,5-a]pyrimidin-3-yl)isonicotinamide], the IC50 is 0.14 nM.
On the same count and under the same terms, the figure for `CCN(CC)[C@@H](C)CNC(=O)c1cc(-c2cnn3ccc(-c4cccs4)nc23)nc(N2CCC[C@@H]2COC)c1` [Example 273, N—((S)-2-(diethylamino)propyl)-2-((R)-2-(methoxymethyl)pyrrolidin-1-yl)-6-(5-(thiophen-2-yl)pyrazolo[1,5-a]pyrimidin-3-yl)isonicotinamide] is 1.43 nM; for `CCN(CC)[C@@H](C)CNC(=O)c1cc(-c2cnn3ccc(-c4cccs4)nc23)nc(N2CCC[C@H]2COC)c1` [Example 274, N—((S)-2-(diethylamino)propyl)-2-((S)-2-(methoxymethyl)pyrrolidin-1-yl)-6-(5-(thiophen-2-yl)pyrazolo[1,5-a]pyrimidin-3-yl)isonicotinamide] it is 0.63 nM.
In the case of `CCN(CC)[C@@H](C)CNC(=O)c1cc(-c2cnn3ccc(-c4cccs4)nc23)nc(N2CC[C@H]2C(=O)NC)c1` [Example 275, N—((S)-2-(diethylamino)propyl)-2-((S)-2-(methylcarbamoyl)azetidin-1-yl)-6-(5-(thiophen-2-yl)pyrazolo[1,5-a]pyrimidin-3-yl)isonicotinamide], the IC50 is 0.2 nM.
In the case of `CCNC(=O)[C@@H]1CCN1c1cc(C(=O)NC[C@H](C)N(CC)CC)cc(-c2cnn3ccc(-c4cccs4)nc23)n1` [Example 276, N—((S)-2-(diethylamino)propyl)-2-((S)-2-(ethylcarbamoyl)azetidin-1-yl)-6-(5-(thiophen-2-yl)pyrazolo[1,5-a]pyrimidin-3-yl)isonicotinamide], the IC50 worked out at 0.22 nM.

Still in this experiment, the particulars now being: potency against CamKIIδ acquired with in-house assays, reference for selectivity values; read-out: CamKIIδ potency (Table 1).
With `CCN(CC)[C@@H](C)CNC(=O)c1cc(-c2cnn3ccc(-c4cccs4)nc23)nc(N2CC[C@H]2C(=O)NC)c1` [Example 275, N—((S)-2-(diethylamino)propyl)-2-((S)-2-(methylcarbamoyl)azetidin-1-yl)-6-(5-(thiophen-2-yl)pyrazolo[1,5-a]pyrimidin-3-yl)isonicotinamide], the IC50 stood at 0.43 nM.
